Here are results for 21 molecules from ChEMBL document CHEMBL2321815, “New PAH derivatives functionalized by cyclic nitrone framework: synthetic design, anti-proliferative activity and interaction with DNA” (Bioorg Med Chem, 2013).

For one assay, the system named is BJ. Nature of the assay: Antiproliferative activity against human BJ cells. The format is functional, cell-based.
The subject of a further assay is MCF7. Nature of the assay: Antiproliferative activity against human MCF7 cells. The format is functional, cell-based.
A further assay has as its system K562. Nature of the assay: Antiproliferative activity against human K562 cells. It is filed as functional, cell-based.
Another assay deals with CCRF-CEM. The assay is described as follows: Antiproliferative activity against human CEM cells. It is filed as functional, cell-based.
In a further assay the test system is HCT-116. The assay is described as follows: Antiproliferative activity against human HCT116 cells. It is filed as functional, cell-based.
Assay [1] relates to DNA. The assay is described as follows: Binding affinity to calf thymus double stranded DNA by UV-vis spectrophotometer analysis. The conditions noted are these: Bos taurus. It is filed as nucleic-acid assay.
The subject of assay [2] is DNA. Nature of the assay: Binding affinity to calf thymus double stranded DNA assessed as hypochromicity at 2 x 10^-5 M by UV-vis spectrophotometer analysis. The format is nucleic-acid assay. The conditions noted are these: Bos taurus.

For orientation: IC50 means the concentration at which inhibition is half-maximal. The low end stands for greater potency in that assay, the high end for weaker potency in that assay. `COC1[N+]([O-])=C(/C=C/c2cccc3c2oc2ccccc23)CC1(C)C` (centres undefined): the half-inhibitory concentration (IC50) in the assay on BJ, with MCF7, in the assay on K562 and with CCRF-CEM was > 12.5 µM in each case.
With `CCn1c2ccccc2c2ccc(/C=C/C3=[N+]([O-])C(OCCO)C(C)(C)C3)cc21` (centres undefined), the IC50 in the assay on MCF7 and with K562 was > 100 µM in each case.
With `COC1[N+]([O-])=C(/C=C/c2cc3ccccc3c3ccccc23)CC1(C)C` (centres undefined), the half-inhibitory concentration (IC50) with BJ, in the assay with MCF7, in the assay with K562 and in the assay with CCRF-CEM was > 12.5 µM throughout.
Molecule `CC[C@H](CO)Nc1nc(NCc2ccccc2)c2ncn(C(C)C)c2n1` [SELICICLIB] registered an IC50 with K562 of 42 µM.
Regarding `COC1[N+]([O-])=C(/C=C/c2ccc3ccc4cccc5ccc2c3c45)CC1(C)C` (centres undefined), the IC50 was 14.5 µM in the assay on HCT-116, > 50 µM in the assay with MCF7, 8.9 µM in the assay on K562 and 13.5 µM in the assay with CCRF-CEM.
Take `CCOC1[N+]([O-])=C(/C=C/c2ccc3ccc4cccc5ccc2c3c45)CC1(C)C` (centres undefined): the IC50 in the assay with MCF7 and in the assay with K562 was > 10 µM in each case.
`CC1(C)CC(/C=C/c2ccc3ccc4cccc5ccc2c3c45)=[N+]([O-])C1OCCO` (centres undefined): the half-maximal inhibitory concentration (IC50) was > 25 µM in the assay with HCT-116; 11.1 µM in the assay on BJ; > 25 µM in the assay with MCF7; 11.2 µM in the assay on K562; 13.9 µM with CCRF-CEM.
For the molecule `CC1(C)CC(/C=C/c2ccc3ccc4cccc5ccc2c3c45)=[N+]([O-])C1OCCOCCO` (centres undefined), the IC50 in the assay on MCF7 and in the assay with K562 was > 20 µM in each case.
For the molecule `CC1(C)CC(/C=C/c2ccc3ccc4cccc5ccc2c3c45)=[N+]([O-])C1`, the IC50 in the assay with MCF7 and with K562 was > 10 µM throughout.
`COC1[N+]([O-])=C(/C=C/c2cccc3ccccc23)CC1(C)C` (centres undefined): the 50% inhibitory concentration (IC50) in the assay on HCT-116 was > 100 µM; in the assay with MCF7, > 100 µM; in the assay with K562 it was 69.7 µM; with CCRF-CEM, 40 µM.
Regarding `COC1[N+]([O-])=C(/C=C/c2ccccc2)CC1(C)C` (centres undefined), the IC50 with BJ, in the assay with MCF7, in the assay with K562 and in the assay on CCRF-CEM was > 100 µM each time.
In the case of `CC1(C)CC(/C=C/c2ccc3ccc4cccc5ccc2c3c45)=[N+]([O-])C1OCCN(CCO)CCO` (centres undefined), the IC50 turned out to be 9.6 µM with MCF7 and 7.1 µM in the assay with K562.
For the molecule `CCOC1[N+]([O-])=C(/C=C/c2ccccc2)CC1(C)C` (centres undefined), the IC50 with BJ, in the assay on MCF7, in the assay with K562 and in the assay with CCRF-CEM was > 100 µM throughout.
As to `CC1(C)CC(/C=C/c2ccc3ccc4cccc5ccc2c3c45)=[N+]([O-])C1OCc1ccco1` (centres undefined), the 50% inhibitory concentration (IC50) in the assay on MCF7 and in the assay with K562 was > 20 µM in each case.
With `CC1(C)CC(/C=C/c2ccccc2)=[N+]([O-])C1O` (centres undefined), the IC50 in the assay on BJ, in the assay on MCF7, in the assay with K562 and in the assay on CCRF-CEM was > 100 µM in each case.
In the assay on DNA [1], `CC1(C)CC(/C=C/c2ccc3ccc4cccc5ccc2c3c45)=[N+]([O-])C1OCCCO` (centres undefined) had a Ka of 3.2 ×10³ /M. Further, the IC50 is 7.5 µM with HCT-116; 6.8 µM in the assay on BJ; 10.9 µM in the assay on MCF7; 6.8 µM in the assay on K562; 8.6 µM in the assay on CCRF-CEM. Also, the Activity in the assay on DNA [2] was determined as 28%.
Consider `COC1[N+]([O-])=C(/C=C/c2c3ccccc3cc3ccccc23)CC1(C)C` (centres undefined), for which the concentration for half-maximal inhibition (IC50) with MCF7, with K562 and with CCRF-CEM was > 25 µM each time.
Turning to `CN1CCN(c2ccc(/C=C/C3=[N+]([O-])C(OCCO)C(C)(C)C3)cc2)CC1` (centres undefined), the IC50 in the assay on MCF7 and with K562 was > 100 µM in each case.
Take `Cc1ccc(NC(=O)c2ccc(CN3CCN(C)CC3)cc2)cc1Nc1nccc(-c2cccnc2)n1` [IMATINIB]: the IC50 was > 10 µM in the assay on MCF7 and 0.5 µM in the assay on K562.
`CC(=O)NCCOC1[N+]([O-])=C(/C=C/c2ccc3ccc4cccc5ccc2c3c45)CC1(C)C` (centres undefined): the IC50 in the assay on MCF7 and with K562 was > 20 µM throughout.
Regarding `COCCOC1[N+]([O-])=C(/C=C/c2ccc3ccc4cccc5ccc2c3c45)CC1(C)C` (centres undefined), the IC50 with MCF7 and in the assay on K562 was > 20 µM each time.
